Results as given in paper PMC9959048, “Lipidation of Naturally Occurring α-Helical Antimicrobial Peptides as a Promising Strategy for Drug Design” (International Journal of Molecular Sciences, 2023).
≈ marks a conversion by molar mass, not a printed value. Where two headings read alike, the source gives them in different places. Residues, ends and D or L forms follow the SMILES beside them. *: point of attachment. Palmitoyl = CCCCCCCCCCCCCCCC(=O)*; Myristoyl = CCCCCCCCCCCCCC(=O)*; Lauroyl = CCCCCCCCCCCC(=O)*; Decanoyl = CCCCCCCCCC(=O)*

How the values were obtained:
C. parapsilosis CCM 8260 = format: cell-based, Candida parapsilosis
Procedure: (§1) The evaluation of the antimicrobial activity of the synthesized lipopeptides was performed against the following reference bacterial and fungal strains: Staphylococcus aureus PCM 1650, Staphylococcus aureus PCM 2054, Staphylococcus epidermidis PCM 521, Staphylococcus epidermidis PCM 2118, Escherichia coli PCM 2057, Candida albicans PCM 2566, Candida glabrata CCM 8270, Candida krusei CCM 8271, Candida parapsilosis CCM 8260.
(§2) For the initial cultivation of the bacteria and fungi, Luria-Bertani broth (LB, Biomaxima, Lublin, Poland) and Sabouraud Dextrose broth (SB, Biomaxima, Lublin, Poland) were used, respectively. Antimicrobial properties of the compounds were analyzed through the determination of MIC (minimal inhibitory concentrations) by my means of the serial micro-dilution technique according to the guidelines of Clinical & Laboratory Standard Institute (CLSI) established for aerobic bacteria and yeasts.
(§3) According to the procedures, Mueller–Hinton broth (MHB) was used as the working medium for the analysis of the bacterial susceptibility, while RPMI-1640 (with L-glutamine, without sodium bicarbonate) growth medium buffered with MOPS (morpholinepropanesulfonic acid) and supplemented with 2% glucose was used for the experiments with the fungi.
(§4) The experiments were carried out for 24 h at 37 and 35 °C for the bacteria and fungi, respectively. Then, the absorbance was measured at 600 nm for each well of the 96-well plate using a microplate reader (Sunrise TM, Tecan Trading AG, Männedorf, Switzerland). Based on the obtained results, the degree of inhibition of the growth of microorganisms (expressed in %) in the presence of the tested compounds range was determined with respect to the control probes. Inoculated wells without peptide were treated as a positive control (100% growth), and the wells containing working medium only were defined as a negative control (0% growth). All measurements were repeated in triplicate.

S. aureus PCM1650 = format: cell-based, Staphylococcus aureus
Procedure: as §1, §2, §3, §4

S. aureus PCM2054 = format: cell-based, Staphylococcus aureus
Procedure: as §1, §2, §3, §4

C. albicans PCM2566 = format: cell-based, Candida albicans
Procedure: as §1, §2, §3, §4

C. glabrata CCM8270 = format: cell-based, Candida glabrata
Procedure: as §1, §2, §3, §4

E. coli PCM2057 = format: cell-based, Escherichia coli
Procedure: as §1, §2, §3, §4

S. epidermidis PCM2118 = format: cell-based, Staphylococcus epidermidis
Procedure: as §1, §2, §3, §4

S. epidermidis PCM521 = format: cell-based, Staphylococcus epidermidis
Procedure: as §1, §2, §3, §4

C. krusei CCM8271 = format: cell-based, Candida krusei
Procedure: as §1, §2, §3, §4

[1] = RPMI-1640 with MOPS and 2% glucose, inoculum 5 × 10^3 CFU/mL, 24 h, 35 °C, absorbance 600 nm, triplicate
[2] = Mueller–Hinton broth, inoculum 5 × 10^5 CFU/mL, 24 h, 37 °C, absorbance 600 nm, triplicate

Compound | MIC, C. parapsilosis CCM 8260 (C. parapsilosis CCM 8260; CCM 8260, 24 h) | MIC, S. aureus PCM1650 (S. aureus PCM1650; PCM1650, 24 h) | MIC, S. aureus PCM2054 (S. aureus PCM2054; PCM2054, 24 h) | MIC, C. albicans PCM2566 (C. albicans PCM2566; PCM2566, 24 h) | MIC, C. glabrata CCM8270 (C. glabrata CCM8270; CCM8270, 24 h) | MIC, E. coli PCM2057 (E. coli PCM2057; PCM2057, 24 h) | MIC, S. epidermidis PCM2118 (S. epidermidis PCM2118; PCM2118, 24 h) | MIC, S. epidermidis PCM521 (S. epidermidis PCM521; PCM521, 24 h) | MIC, C. krusei CCM8271 (C. krusei CCM8271; CCM8271, 24 h) | MIC, C. parapsilosis CCM 8260 (C. parapsilosis CCM 8260; [1]) | MIC, S. aureus PCM2054 (S. aureus PCM2054; [2]) | MIC, C. albicans PCM2566 (C. albicans PCM2566; [1]) | MIC, C. glabrata CCM8270 (C. glabrata CCM8270; [1]) | MIC, E. coli PCM2057 (E. coli PCM2057; [2]) | MIC, S. epidermidis PCM2118 (S. epidermidis PCM2118; [2]) | MIC, S. epidermidis PCM521 (S. epidermidis PCM521; [2]) | MIC, C. krusei CCM8271 (C. krusei CCM8271; [1]) | MIC, S. aureus PCM1650 (S. aureus PCM1650; [2])
CCCCCCCCCCCC(=O)N[C@H](C(=O)N[C@@H](CCCCN)C(=O)N[C@@H](CCCCN)C(=O)N[C@H](C(=O)N[C@@H](CC(C)C)C(=O)N[C@@H](CO)C(=O)N[C@@H](CCCCN)C(=O)N[C@H](C(=O)N[C@@H](CCCCN)C(=O)N[C@@H](CCCCN)C(=O)N[C@@H](CC(C)C)C(=O)N[C@@H](CC(C)C)C(=O)N[C@@H](CCCCN)C(N)=O)[C@@H](C)CC)[C@@H](C)CC)[C@@H](C)CC [C12-LK6] (Lauroyl-IKKILSKIKKLLK-NH2) | 6.25 µg/mL (≈ 3.6 µM) | 25 µg/mL (≈ 14.4 µM) | 50 µg/mL (≈ 28.8 µM) | 6.25 µg/mL (≈ 3.6 µM) | 3.13 µg/mL (≈ 1.8 µM) | >50 µg/mL | 6.25 µg/mL (≈ 3.6 µM) | 25 µg/mL (≈ 14.4 µM) | 6.25 µg/mL (≈ 3.6 µM) | – | – | – | – | – | – | – | – | –
CCCCCCCCCC(=O)N[C@H](C(=O)N[C@@H](CCCCN)C(=O)N[C@@H](CCCCN)C(=O)N[C@H](C(=O)N[C@@H](CC(C)C)C(=O)N[C@@H](CO)C(=O)N[C@@H](CCCCN)C(=O)N[C@H](C(=O)N[C@@H](CCCCN)C(=O)N[C@@H](CCCCN)C(=O)N[C@@H](CC(C)C)C(=O)N[C@@H](CC(C)C)C(=O)N[C@@H](CCCCN)C(N)=O)[C@@H](C)CC)[C@@H](C)CC)[C@@H](C)CC [C10-LK6] (Decanoyl-IKKILSKIKKLLK-NH2) | 6.25 µg/mL (≈ 3.66 µM) | – | 50 µg/mL (≈ 29.3 µM) | 6.25 µg/mL (≈ 3.66 µM) | 6.25 µg/mL (≈ 3.66 µM) | >50 µg/mL | 6.25 µg/mL (≈ 3.66 µM) | 6.25 µg/mL (≈ 3.66 µM) | 6.25 µg/mL (≈ 3.66 µM) | – | – | – | – | – | – | – | – | –
CCCCCCCCCCCCCC(=O)N[C@H](C(=O)N[C@@H](CC(N)=O)C(=O)N[C@@H](Cc1c[nH]c2ccccc12)C(=O)N[C@@H](CCCCN)C(=O)N[C@@H](CCCCN)C(=O)N[C@H](C(=O)N[C@@H](CC(C)C)C(=O)NCC(=O)N[C@@H](CCCCN)C(=O)N[C@H](C(=O)N[C@H](C(=O)N[C@@H](CCCCN)C(=O)N[C@H](C(=O)N[C@@H](C)C(=O)N[C@@H](CCCCN)C(N)=O)C(C)C)[C@@H](C)CC)[C@@H](C)CC)C(C)C)C(C)C [C14-LL-I] (Myristoyl-VNWKKVLGKIIKVAK-NH2) | – | – | – | – | – | – | – | – | – | 3.13 µg/mL (≈ 1.62 µM) | >50 µg/mL | >50 µg/mL | 12.5 µg/mL (≈ 6.46 µM) | >50 µg/mL | 12.5 µg/mL (≈ 6.46 µM) | 12.5 µg/mL (≈ 6.46 µM) | 12.5 µg/mL (≈ 6.46 µM) | –
CC[C@H](C)[C@H](N)C(=O)N[C@@H](CCCCN)C(=O)N[C@@H](CCCCN)C(=O)N[C@H](C(=O)N[C@@H](CC(C)C)C(=O)N[C@@H](CO)C(=O)N[C@@H](CCCCN)C(=O)N[C@H](C(=O)N[C@@H](CCCCN)C(=O)N[C@@H](CCCCN)C(=O)N[C@@H](CC(C)C)C(=O)N[C@@H](CC(C)C)C(=O)N[C@@H](CCCCN)C(N)=O)[C@@H](C)CC)[C@@H](C)CC [LK6, reference compound] (H-IKKILSKIKKLLK-NH2) | 12.5 µg/mL (≈ 8.05 µM) | – | >50 µg/mL | 50 µg/mL (≈ 32.2 µM) | 31.25 µg/mL (≈ 20.1 µM) | >50 µg/mL | 6.25 µg/mL (≈ 4.03 µM) | 6.25 µg/mL (≈ 4.03 µM) | 12.5 µg/mL (≈ 8.05 µM) | – | – | – | – | – | – | – | – | –
CC[C@H](C)[C@H](NC(=O)[C@H](CCCCN)NC(=O)CNC(=O)[C@H](CC(C)C)NC(=O)[C@@H](NC(=O)[C@H](CCCCN)NC(=O)[C@H](CCCCN)NC(=O)[C@H](Cc1c[nH]c2ccccc12)NC(=O)[C@H](CC(N)=O)NC(=O)[C@@H](N)C(C)C)C(C)C)C(=O)N[C@H](C(=O)N[C@@H](CCCCN)C(=O)N[C@H](C(=O)N[C@@H](C)C(=O)N[C@@H](CCCCN)C(N)=O)C(C)C)[C@@H](C)CC [LL-I, reference compound] (H-VNWKKVLGKIIKVAK-NH2) | – | – | – | – | – | – | – | – | – | 50 µg/mL (≈ 29 µM) | >50 µg/mL | >50 µg/mL | >50 µg/mL | 12.5 µg/mL (≈ 7.25 µM) | 6.25 µg/mL (≈ 3.63 µM) | 12.5 µg/mL (≈ 7.25 µM) | 50 µg/mL (≈ 29 µM) | 25 µg/mL (≈ 14.5 µM)
CCCCCCCCCCCCCC(=O)N[C@H](C(=O)N[C@@H](CCCCN)C(=O)N[C@@H](CCCCN)C(=O)N[C@H](C(=O)N[C@@H](CC(C)C)C(=O)N[C@@H](CO)C(=O)N[C@@H](CCCCN)C(=O)N[C@H](C(=O)N[C@@H](CCCCN)C(=O)N[C@@H](CCCCN)C(=O)N[C@@H](CC(C)C)C(=O)N[C@@H](CC(C)C)C(=O)N[C@@H](CCCCN)C(N)=O)[C@@H](C)CC)[C@@H](C)CC)[C@@H](C)CC [C14-LK6] (Myristoyl-IKKILSKIKKLLK-NH2) | 6.25 µg/mL (≈ 3.55 µM) | – | 50 µg/mL (≈ 28.4 µM) | 6.25 µg/mL (≈ 3.55 µM) | 12.5 µg/mL (≈ 7.09 µM) | >50 µg/mL | 25 µg/mL (≈ 14.2 µM) | 25 µg/mL (≈ 14.2 µM) | 6.25 µg/mL (≈ 3.55 µM) | – | – | – | – | – | – | – | – | –
CCCCCCCCCCCC(=O)N[C@@H](CCCCN)C(=O)N[C@@H](CCCNC(=N)N)C(=O)N[C@@H](Cc1ccccc1)C(=O)N[C@@H](CCCCN)C(=O)N[C@@H](CCCCN)C(=O)N[C@@H](Cc1ccccc1)C(=O)N[C@@H](Cc1ccccc1)C(=O)N[C@@H](CCCCN)C(=O)N[C@@H](CCCCN)C(=O)N[C@@H](CC(C)C)C(=O)N[C@@H](CCCCN)C(N)=O [C12-ATRA-1] (Lauroyl-KRFKKFFKKLK-NH2) | – | – | – | – | – | – | – | – | – | 12.5 µg/mL (≈ 7.44 µM) | 3.9 µg/mL (≈ 2.32 µM) | 2.5 µg/mL (≈ 1.49 µM) | 6.25 µg/mL (≈ 3.72 µM) | 31.25 µg/mL (≈ 18.6 µM) | 3.13 µg/mL (≈ 1.86 µM) | 3.13 µg/mL (≈ 1.86 µM) | 2.5 µg/mL (≈ 1.49 µM) | –
CCCCCCCCCCCCCCCC(=O)N[C@H](C(=O)N[C@@H](CC(N)=O)C(=O)N[C@@H](Cc1c[nH]c2ccccc12)C(=O)N[C@@H](CCCCN)C(=O)N[C@@H](CCCCN)C(=O)N[C@H](C(=O)N[C@@H](CC(C)C)C(=O)NCC(=O)N[C@@H](CCCCN)C(=O)N[C@H](C(=O)N[C@H](C(=O)N[C@@H](CCCCN)C(=O)N[C@H](C(=O)N[C@@H](C)C(=O)N[C@@H](CCCCN)C(N)=O)C(C)C)[C@@H](C)CC)[C@@H](C)CC)C(C)C)C(C)C [C16-LL-I] (Palmitoyl-VNWKKVLGKIIKVAK-NH2) | – | – | – | – | – | – | – | – | – | 12.5 µg/mL (≈ 6.37 µM) | >50 µg/mL | >50 µg/mL | >50 µg/mL | >50 µg/mL | 25 µg/mL (≈ 12.7 µM) | 25 µg/mL (≈ 12.7 µM) | >50 µg/mL | –
CCCCCCCCCCCCCCCC(=O)N[C@H](C(=O)N[C@@H](CCCCN)C(=O)N[C@@H](CCCCN)C(=O)N[C@H](C(=O)N[C@@H](CC(C)C)C(=O)N[C@@H](CO)C(=O)N[C@@H](CCCCN)C(=O)N[C@H](C(=O)N[C@@H](CCCCN)C(=O)N[C@@H](CCCCN)C(=O)N[C@@H](CC(C)C)C(=O)N[C@@H](CC(C)C)C(=O)N[C@@H](CCCCN)C(N)=O)[C@@H](C)CC)[C@@H](C)CC)[C@@H](C)CC [C16-LK6] (Palmitoyl-IKKILSKIKKLLK-NH2) | 50 µg/mL (≈ 27.9 µM) | – | >50 µg/mL | 6.25 µg/mL (≈ 3.49 µM) | >50 µg/mL | >50 µg/mL | 50 µg/mL (≈ 27.9 µM) | 50 µg/mL (≈ 27.9 µM) | 25 µg/mL (≈ 14 µM) | – | – | – | – | – | – | – | – | –
